Converted amounts (≈) assume the structure as drawn.
Legend:
[1] = system: HIV-1 IIIB (cell-free virus); assay: microbe, parasite or virus in culture; type: cell-based; settings: for IC50: Human immunodeficiency virus 1, IIIB, read-out: IC50 Cell-Free Virus IIIB; for IC50 / IC50 Cell-Free Virus IIIB: Table 1; for IC50 / IC50 Cell-Free Virus IIIB / EC50 Cell-free HIV-1 (IIIB) / EC50: 2 h incubation, wash, 48 h culture; for EC50 Cell-free HIV-1 (IIIB) / EC50: Table 8; for EC50: read-out: EC50 Cell-free HIV-1 (IIIB)
[2] = system: Cell-associated HIV-1, SupT1 (IIIB); assay: Single-round infection assay, cell-associated virus SupT1 (IIIB); type: cell-based; settings: for IC50: Human immunodeficiency virus 1, IIIB, SUP-T1, read-out: IC50 Cell-Associated Virus SupT1 (IIIB); for IC50 / IC50 Cell-Associated Virus SupT1 (IIIB): Table 1, 2 h incubation, wash, 48 h culture
[3] = system: HIV-1 BaL (cell-free virus); assay: Single-round infection assay, cell-free virus BaL; type: cell-based; settings: for IC50: Human immunodeficiency virus 1, BAL, read-out: IC50 Cell-Free Virus BaL; for IC50 / IC50 Cell-Free Virus BaL: Table 1, 2 h incubation, wash, 48 h culture
[4] = Cytotoxicity (Tables 4, 6, 8)

| Compound | IC50 [1] [µg/mL] | IC50 [2] [µg/mL] | IC50 [3] [µg/mL] | IC50 Cell-Free Virus IIIB [1] [µg/mL] | IC50 Cell-Associated Virus SupT1 (IIIB) [2] [µg/mL] | IC50 Cell-Free Virus BaL [3] [µg/mL] | further results |
| --- | --- | --- | --- | --- | --- | --- | --- |
| Nc1nc(=O)n([C@H]2CS[C@@H](CO)O2)cc1F [2′,3′-dideoxy-5-fluoro-3′-thiacytidine, reference compound] | 0.48 (≈ 1.94 µM) | 21.9 (≈ 88.6 µM) | 0.18 (≈ 0.728 µM) |  |  |  |  |
| CCSCCCCCCCCCCC(=O)OC[C@H]1O[C@@H](n2cc(C)c(=O)[nH]c2=O)C[C@@H]1N=[N+]=[N-] [3′-azido-2′,3′-dideoxy-5′-O-(11-thioethylundecanoyl)thymidine] |  |  |  | 3.8 (≈ 7.67 µM) | 44.9 (≈ 90.6 µM) | 2.6 (≈ 5.25 µM) |  |
| Cc1cn([C@H]2C[C@H](N=[N+]=[N-])[C@@H](COC(=O)CCCCCCCCCCCBr)O2)c(=O)[nH]c1=O [3′-azido-2′,3′-dideoxy-5′-O-(12-bromododecanoyl)thymidine] |  |  |  | 5.6 (≈ 10.6 µM) | >100 | 2.6 (≈ 4.92 µM) |  |
| CCCCCCCCCCCCCCC(=O)OC[C@H]1O[C@@H](n2cc(C)c(=O)[nH]c2=O)C[C@@H]1N=[N+]=[N-] [3′-azido-2′,3′-dideoxy-5′-O-(pentadecanoyl)thymidine] |  |  |  | 8.8 (≈ 17.9 µM) | >100 | 2.2 (≈ 4.47 µM) |  |
| CCCCCCCCCCCCCC(=O)OC[C@H]1O[C@@H](n2cc(C)c(=O)[nH]c2=O)C[C@@H]1N=[N+]=[N-] [3′-azido-2′,3′-dideoxy-5′-O-(tetradecanoyl)thymidine] |  |  |  | 1.5 (≈ 3.14 µM) | >100 | 2.4 (≈ 5.03 µM) |  |
| CCCCCCCCCCCCCCOC[C@H]1O[C@@H](n2cc(C)c(=O)[nH]c2=O)C[C@@H]1N=[N+]=[N-] [3′-azido-2′,3′-dideoxy-5′-O-(tetradecyl)thymidine] |  |  |  | 57.8 (≈ 125 µM) | >100 | 12.8 (≈ 27.6 µM) |  |
| Cc1cn([C@H]2C[C@H](F)[C@@H](CO)O2)c(=O)[nH]c1=O [3′-fluoro-2′,3′-deoxythymidine (FLT), 3′-fluoro-2′,3′-deoxythymidine, reference compound] |  |  |  | 0.2 (≈ 0.819 µM) | >100 | 0.1 (≈ 0.409 µM) | EC50 Cell-free HIV-1 (IIIB) [1]: 0.2 µg/mL (≈ 0.819 µM); EC50 [1]: 0.8 µM |
| CCCCCCCCCCCCC(OC)C(=O)OC[C@H]1O[C@@H](n2cc(C)c(=O)[nH]c2=O)C[C@@H]1F (stereo partly drawn) [3′-fluoro-2′,3′-dideoxy-5′-O-(2-methoxytetradecanoyl)thymidine] |  |  |  | 0.5 (≈ 1.03 µM) | >100 | 0.1 (≈ 0.206 µM) |  |
| CCCCCSCCCCCCCC(=O)OC[C@H]1O[C@@H](n2cc(C)c(=O)[nH]c2=O)C[C@@H]1F [3′-fluoro-2′,3′-dideoxy-5′-O-(9-thiatertradecanoyl)thymidine] |  |  |  | 5.4 (≈ 11.4 µM) | >100 | 2.1 (≈ 4.44 µM) |  |
| Cc1cn([C@H]2C[C@H](F)[C@@H](COC(=O)CCCCCCCCCCCBr)O2)c(=O)[nH]c1=O [3′-fluoro-2′,3′-dideoxy-5′-O-(12-bromododecanoyl)thymidine] |  |  |  | 0.9 (≈ 1.78 µM) | >100 | <0.1 |  |
| CCCCCCCCCCCCCCOC[C@H]1O[C@@H](n2cc(C)c(=O)[nH]c2=O)C[C@@H]1F [3′-fluoro-2′,3′-dideoxy-5′-O-(tetradecyl)thymidine] |  |  |  | 79.1 (≈ 180 µM) | >100 | 77.3 (≈ 175 µM) |  |
| Cc1cn([C@H]2C=C[C@@H](COC(=O)CCCCCCCCCCCN=[N+]=[N-])O2)c(=O)[nH]c1=O [5′-O-(12-azidodecanoyl)-2′,3′-didehydro-2′,3′-dideoxythymidine] |  |  |  | 3.0 (≈ 6.7 µM) | 10.0 (≈ 22.3 µM) | 1.4 (≈ 3.13 µM) |  |
| [N-]=[N+]=NCCCCCCCCCCCC(=O)OC[C@H]1O[C@@H](n2ccc(N)nc2=O)CS1 [5′-O-(12-azidododecanoyl)-2′,3′-dideoxy-3′-thiacytidine] | 0.88 (≈ 1.94 µM) | > 100 | 0.08 (≈ 0.177 µM) |  |  |  |  |
| [N-]=[N+]=NCCCCCCCCCCCC(=O)OC[C@H]1O[C@@H](n2cc(F)c(N)nc2=O)CS1 [5′-O-(12-azidododecanoyl)-2′,3′-dideoxy-5-fluoro-3′-thiacytidine] | 0.39 (≈ 0.829 µM) | 4.3 (≈ 9.14 µM) | 0.11 (≈ 0.234 µM) |  |  |  |  |
| Cc1cn(C2C=CC(COC(=O)CCCCCCCCCCCSCCN=[N+]=[N-])O2)c(=O)[nH]c1=O (stereo not drawn) [5′-O-(12-thioethylazidodecanoyl)-2′,3′-didehydro-2′,3′-dideoxythymidine] |  |  |  | 6.7 (≈ 13.2 µM) | 21.7 (≈ 42.7 µM) | 2.7 (≈ 5.32 µM) |  |
| CCSCCCCCCCCCCCC(=O)OC[C@H]1O[C@@H](n2ccc(N)nc2=O)CS1 [5′-O-(13-thiapentadecanoyl)-2′,3′-dideoxy-3′-thiacytidine] | 1.1 (≈ 2.33 µM) | > 100 | < 0.1 |  |  |  |  |
| CCSCCCCCCCCCCCC(=O)OC[C@H]1O[C@@H](n2cc(F)c(N)nc2=O)CS1 [5′-O-(13-thiapentadecanoyl)-2′,3′-dideoxy-5-fluoro-3′-thiacytidine] | 0.024 (≈ 0.049 µM) | 2.4 (≈ 4.9 µM) | 0.02 (≈ 0.0408 µM) |  |  |  |  |
| CCCCCCCCCCCCCC(=O)OC[C@@H]1C=C[C@H](n2cc(C)c(=O)[nH]c2=O)O1 [5′-O-myristoyl-2′,3′-didehydro-2′,3′-dideoxythymidine] |  |  |  | 34 (≈ 78.2 µM) | >100 | 5.4 (≈ 12.4 µM) |  |
| CCCCCCCCCCCCCC(=O)OC[C@H]1O[C@@H](n2ccc(N)nc2=O)CS1 [5′-O-tetradecanoyl-2′,3′-dideoxy-3′-thiacytidine] | 0.3 (≈ 0.682 µM) | 27.3 (≈ 62.1 µM) | 0.082 (≈ 0.187 µM) |  |  |  |  |
| CCCCCCCCCCCCCC(=O)OC[C@H]1O[C@@H](n2cc(F)c(N)nc2=O)CS1 [5′-O-tetradecanoyl-2′,3′-dideoxy-5-fluoro-3′-thiacytidine] | 0.056 (≈ 0.122 µM) | 1.7 (≈ 3.71 µM) | 0.033 (≈ 0.0721 µM) |  |  |  |  |
| Cc1cn([C@H]2C=C[C@@H](COC(=O)CCCCCCCCCCCBr)O2)c(=O)[nH]c1=O [12-bromododecanoyl-2′,3′-didehydro-2′,3′-dideoxythymidine] |  |  |  | 7.2 (≈ 14.8 µM) | >100 | 1.1 (≈ 2.27 µM) |  |
| CCCCCCCCCCCCCC(=O)NCCCCC(NC(=O)CCNC(=O)C(CCC(=O)OC[C@H]1O[C@@H](n2cc(C)c(=O)[nH]c2=O)C[C@@H]1F)NC(C)=O)C(=O)O (stereo partly drawn) [KPH-91, FLT(Glutamyl)-myrsitoyllysine] |  |  |  |  |  |  | EC50 Cell-free HIV-1 (IIIB) [1]: 8.7 µg/mL (≈ 10.5 µM); EC50 [1]: 10.5 µM; CC50 [4]: > 100 µg/mL |
| CCCCCCCCCCCCCC(=O)NCCCC[C@H](NC(=O)CCNC(=O)[C@H](CCC(=O)OC[C@H]1O[C@@H](n2cc(C)c(=O)[nH]c2=O)C[C@@H]1F)NC(=O)CCCCCCCCCCCCC)C(=O)O [KPH-92, FLT(myristoylglutamyl)-mysritoyllysine] |  |  |  |  |  |  | CC50 [4]: > 100 µg/mL |
| [N-]=[N+]=NCCCCCCCCCCCC(=O)Nc1ccn(C2CSC(COC(=O)CCCCCCCCCCCN=[N+]=[N-])O2)c(=O)n1 (stereo not drawn) [N4, 5′-O-di(12-azidodecanoyl)-2′,3′-dideoxy-3′-thiacytidine] |  |  |  | >100 | >100 | 49.1 (≈ 72.6 µM) |  |
| CCCCCCCCCCCCCC(=O)Nc1ccn([C@H]2CS[C@@H](COC(=O)CCCCCCCCCCCCC)O2)c(=O)n1 [N4, 5′-O-dimyristoyl-2′,3′-dideoxy-3′-thiacytidine] | > 100 | > 100 | 87.8 (≈ 135 µM) |  |  |  |  |
| [N-]=[N+]=NCCCCCCCCCCCC(=O)Nc1ccn([C@H]2CS[C@@H](CO)O2)c(=O)n1 [N4-(12-azidodecanoyl)-2′,3′-dideoxy-3′-thiacytidine] |  |  |  | 13.3 (≈ 29.4 µM) | 6.6 (≈ 14.6 µM) | 1.7 (≈ 3.76 µM) |  |
| CCSCCCCCCCCCCCC(=O)Nc1ccn([C@H]2CS[C@@H](CO)O2)c(=O)n1 [N4-(13-thiapentadecanoyl)-2′,3′-dideoxy-3′-thiacytidine] | 2.5 (≈ 5.3 µM) | > 100 | 0.2 (≈ 0.424 µM) |  |  |  |  |
| CCCCCCCCCCCCCC(=O)Nc1ccn([C@H]2CS[C@@H](CO)O2)c(=O)n1 [N4-tetradecanoyl-2′,3′-dideoxy-3′-thiacytidine] | 4.8 (≈ 10.9 µM) | 0.3 (≈ 0.682 µM) | 0.3 (≈ 0.682 µM) |  |  |  |  |
| Sodium cellulose sulfate-succinate-AZT (17.2%) [CS-Suc-AZT] |  |  |  |  |  |  | EC50 Cell-Free Virus IIIB ([1]; Table 4): 2.2 µg/mL; EC50 Cell-Associated Virus SupT1-IIIB ([2]; Table 4): 74.8 µg/mL; EC50 Cell-Free Virus BaL ([3]; Table 4): 9.9 µg/mL |

Source: patent US9296776B2, “Substituted nucleoside derivatives with antiviral and antimicrobial properties” (Eastern Virginia Medical School, priority 2007, dated 2016)
